The values below come from US20180057547A1, “DIAGNOSTIC AND THERAPEUTIC EPITOPE, AND TRANSGENIC PLANT” (OXFORD UNIVERSITY INNOVATION LIMITED, priority 1999, published 2018).

One assay concerns HLA-DQ2. The following applies: cited from earlier work.
In assay [1] the test system is PBMC from coeliac volunteers. Description: Antagonism of A-gliadin 57-73 QE65 interferon gamma ELISPOT response (simultaneous addition of peptide). The following applies: peptides known to bind HLA-DQ2, 50 μg/ml plus A-gliadin 57-73 QE65 10 μg/ml. The class given is cell-based, human. The procedure:
Simultaneous addition of peptide (50 μg/ml) or buffer and A-gliadin 57-73 QE65 (10 μg/ml) in IFNgamma ELISPOT using PBMC from coeliac volunteers 6 days after commencing 3 day gluten challenge (n=5). Results were expressed as response with peptide plus A-G 57-73 QE65 (mean of duplicates) as % response with buffer plus A-G 57-73 QE65 (mean of 20 replicates). (See Table 9).

Assay [2] concerns CD4 or CD8 depleted PBMC from coeliac disease subjects. Description: IFNγ ELISPOT with CD4 and CD8 magnetic bead depleted PBMC. The format is cell-based, human. The procedure:
Anti-CD4 or anti-CD8 coated magnetic beads (Dynal, Oslo, Norway) were washed four times with RPMI then incubated with PBMC in complete RPMI containing 10% heat inactivated human AB serum (5×10^6 cells/ml) for 30 minutes on ice. Beads were removed using a magnet and cells remaining counted. […] HLA-class II restriction of the immune response to tTG-treated A-gliadin 56-75 was established by incubating PBMC (5×10^6 cells/ml) with anti-HLA-DR (L243), -DQ (L2), and -DP (B7.21) monoclonal antibodies (10 μg/ml) at room temperature for one hour prior to the addition of peptide.

The test system of assay [3] is PBMC from coeliac subjects. In words: IFNγ ELISPOT with PBMC of coeliac disease subjects after bread/gluten challenge. The class given is cell-based, human. The following applies: 25 mcg/ml, 4 subjects, blank 5 (1) %.
The subject of assay [4] is gluten-specific T cell clones and lines. The following applies: from original publications; iTCC intestinal T cell clone, iTCL intestinal polyclonal T cell line, bTCC peripheral blood T cell clone; NS not given; cited from earlier work.

As for “IDVWLGGLLAENFLPY [TP, reference compound]”, the “binding to HLA-DQ2” value in the assay with HLA-DQ2 is reported as “bind avidly to HLA-DQ2”. Also, the “% Inhibit. of A-gliadin 57-73 QE65 interferon gamma ELISpot response” value in assay [1] came to 31%.
“LQLQPFPQPQLPYPQPQSFP [A-gliadin 56-75, 20mer of A-gliadin, used tTG-treated]”: the “spot forming cells per million CD8 depleted PBMC” value in assay [2] (Subject 4, tTG treated peptide 0.1 μM) is recorded as 29 spot forming cells per million CD8 depleted PBMC; in assay [2] (Subject 6, tTG treated peptide 0.1 μM) it was 535 spot forming cells per million CD8 depleted PBMC. For the same sequence, the “cell subset mediating the IFNγ response” value in assay [2] (anti-CD4 and anti-CD8 magnetic bead depletion, two subjects) is “CD4 T cell-mediated”.
For the sequence “PRAPWIEQEGPEYW [HLA1a, reference compound]”, the “binding to HLA-DQ2” value in the assay on HLA-DQ2 was “bind avidly to HLA-DQ2”. Moreover, the “% Inhibit. of A-gliadin 57-73 QE65 interferon gamma ELISpot response” value is listed as 0% in assay [1] and “does not alter responses” in assay [1] (listed as HLA class 1 α 46-60).
Take QLQPFPQPELPY [reference compound]: the “ELISpot response as % A-gliadin 57-73 QE65, E-substituted” value in assay [3] (glutamate-substituted peptide) is 8 (3) %. Moreover, the “ELISpot response as % A-gliadin 57-73 QE65, Wildtype + tTG” value in assay [3] (tTG-treated wild type peptide) is reported as 19 (1) %. For the same sequence, in assay [3] (unmodified gliadin peptide), the “ELISpot response as % A-gliadin 57-73 QE65, Wild type” value was 6 (2) %. For the same sequence, the Frequency in assay [4] is on record as 12/17 (iTCL).
